Assays:
Format in all cases: cell-based
[1] = tested on: three strains of Staphylococcus aureus isolated from the vaginal secretion of patients with vaginitis; test: Growth in enrichment broth (turbidity after 24 hours), clinical strains; parameters: key to growth of Staphylococcus aureus, Bacterial strain 1 / growth of Staphylococcus aureus, Bacterial strain 2 / growth of Staphylococcus aureus, Bacterial strain 3: +: means the growth of bacteria; −: means no growth of bacteria; details: enrichment broth, 37° C. for 24 hours, turbidity
Text: (§1) a. Experimental strains, three strains of Escherichia coli and three strains of Staphylococcus aureus, which were all isolated from the vaginal secretion of patients with vaginitis.
(§2) b. Enrichment broth, which contained 1 percent of yeast extract powder, 9 percent of sucrose, 0.025 percent of manganese sulfate (MnSO4.4H2O), 0.058 percent of magnesium sulfate (MgSO4.7H2O), and 0.9 percent of lactic acid, the pH value of the broth was adjusted to 4.8, and the enrichment broth was sterilized for later use;
(§3) (2). Experimental groups: the requirements for aseptic operation technique were strictly followed to prepare the sterile test tubes:
(§4) a. sodium benzoate group: each test tube contained 5 milliliters of enrichment broth, and was added in 0.05 percent (weight/volume) sodium benzoate;
(§5) b. 2-phenylethanol group: each test tube contained 5 milliliters of enrichment broth, and was added in 0.05 percent (weight/volume) of 2-phenylethanol;
(§6) c. sodium propionate group: each test tube contained 5 milliliters of enrichment broth, and was added in 0.25 percent (weight/volume) of sodium propionate;
(§7) d. “a group of the combinations of sodium benzoate and sodium propionate”: each test tube contained 5 milliliters of enrichment broth, and was added in 0.05 percent (weight/volume) of sodium benzoate and 0.25 percent (weight/volume) of sodium propionate;
(§8) e. “a group of the combinations of sodium benzoate and 2-phenylethanol”: each test tube contained 5 milliliters of enrichment broth, and was added in 0.05 percent (weight/volume) of sodium benzoate and 0.05 percent (weight/volume) of 2-phenylethanol;
(§9) f. “a group of the combinations of sodium propionate and 2-phenylethanol”: each test tube contained 5 milliliters of enrichment broth, and was added in 0.25 percent (weight/volume) of sodium propionate and 0.05 percent (weight/volume) of 2-phenylethanol;
(§10) g. “a group of the combinations of sodium benzoate, sodium propionate and 2-phenylethanol”: each test tube contained 5 milliliters of enrichment broth, and was added in 0.05 percent (weight/volume) of sodium benzoate, 0.25 percent (weight/volume) of sodium propionate, and 0.05 percent (weight/volume) of 2-phenylethanol;
(§11) h. positive control: one tube that contained 5 milliliters of enrichment broth without adding in any of the 2-phenylethanol, sodium benzoate, and sodium propionate, but inoculated the suspension of Escherichia coli or Staphylococcus aureus.
(§12) i. negative control: one tube that contained 5 milliliters of enrichment broth without adding in any of the 2-phenylethanol, sodium benzoate, and sodium propionate, and not inoculated the suspension of Escherichia coli or Staphylococcus aureus.
(§13) The requirements for aseptic operation technique were strictly followed to prepare the bacterial suspensions. The colonies of Escherichia coli and Staphylococcus aureus were diluted with physiological saline respectively to prepare bacterial suspension. The turbidities of the Escherichia coli suspension and the Staphylococcus aureus suspension were adjusted to 0.5 MCF (about 10^8 CFU/ml) by a turbidimeter. 1 milliliter of the 0.5 MCF bacterial suspensions were added into 9 milliliters of the enrichment broth respectively, so each bacterial solution was diluted for ten times to contain 10^7 CFU/ml of bacterial organisms.
(§14) The requirements for aseptic operation technique were strictly followed to take 100 microliters of the prepared bacterial suspensions respectively, and to add the bacterial suspensions into the aforesaid test tubes from a to h as well as positive control tube. No bacterial suspension was added into the negative control tube i.
(§15) The above tubes were cultured in a biochemical incubator at 37° C. for 24 hours, then turbidity changes of the test tube solutions were observed and recorded.
(§16) Remark: “+” means the growth of bacteria; “−” means no growth of bacteria.

[2] = tested on: three strains of Escherichia coli isolated from the vaginal secretion of patients with vaginitis; test: as above; parameters: key to growth of Escherichia coli, Bacterial strain 1 / growth of Escherichia coli, Bacterial strain 2 / growth of Escherichia coli, Bacterial strain 3: +: means the growth of bacteria; −: means no growth of bacteria; details: enrichment broth, 37° C. for 24 hours, turbidity
Text: as §1, §2, §3, §4, §5, §6, §7, §8, §9, §10, §11, §12, §13, §14, §15, §16

[3] = tested on: nine strains of Candida albicans; test: Growth of Candida in enrichment broth after 24 hours, clinical strains; parameters: key to growth of Candida albicans, strain 1 / growth of Candida albicans, strain 2 / growth of Candida albicans, strain 3 / growth of Candida albicans, strain 4 / growth of Candida albicans, strain 5 / growth of Candida albicans, strain 6 / growth of Candida albicans, strain 7 / growth of Candida albicans, strain 8 / growth of Candida albicans, strain 9: +: means the growth of organisms; −: means no growth of organisms; details: enrichment broth, 37° C. for 24 hours
Text: as §2, with “broth:” for “broth,”, “4.5,” for “4.8,”
(2) Experimental groups: the requirements of aseptic operation technique were strictly followed so to prepare the sterile test tubes;
a. sodium benzoate group: each test tube contained 5 milliliters enrichment broth, and was added in 0.025 percent (weight/volume) of sodium benzoate;
b. 2-phenylethanol group: each test tube contained 5 milliliters enrichment broth, and was added in 0.050 percent (weight/volume) of 2-phenylethanol;
c. sodium propionate group: each test tube contained 5 milliliters enrichment broth, and was added in 0.125 percent (weight/volume) of sodium propionate;
d. “a group of the combinations of sodium benzoate and sodium propionate”: each test tube contained 5 milliliters enrichment broth, and was added in 0.025 percent (weight/volume) of sodium benzoate and 0.125 percent (weight/volume) of sodium propionate;
e. “a group of the combinations of sodium benzoate and 2-phenylethanol”: each test tube contained 5 milliliters enrichment broth, and was added in 0.025 percent (weight/volume) of sodium benzoate and 0.050 percent (weight/volume) of 2-phenylethanol;
f. “a group of the combinations of sodium propionate and 2-phenylethanol”: each test tube contained 5 milliliters enrichment broth, and was added in 0.125 percent (weight/volume) of sodium propionate and 0.050 percent (weight/volume) of 2-phenylethanol;
g. “a group of the combinations of sodium benzoate, sodium propionate and 2-phenylethanol”: each test tube contained 5 milliliters enrichment broth, and was added in 0.025 percent (weight/volume) of sodium benzoate, 0.125 percent (weight/volume) of sodium propionate and 0.050 percent (weight/volume) of 2-phenylethanol;
h. positive control: the control tube of enrichment broth without adding in 2-phenylethanol, sodium benzoate, and sodium propionate; but inoculated the suspension of Candida albicans;
i. negative control: the control tube of enrichment broth without adding in 2-phenylethanol, sodium benzoate, and sodium propionate; and without inoculating Candida albicans;
The requirements for aseptic operation technique were strictly followed to prepare the suspension of organism. The colonies of each strain of Candida albicans organism were diluted with physiological saline respectively. The turbidities of the suspensions of Candida albicans organism were adjusted to 0.5 MCF (about 10^8 CFU/ml) by a turbidimeter. 1 milliliter of the 0.5 MCF organism suspension was added into 9 milliliters of enrichment broth. Each suspension was diluted for ten times to contain 10^7 CFU/ml of organisms.
the requirements for aseptic technique were strictly followed to take 100 microliters of the prepared organism suspension respectively and to add the suspension into the test tubes from a to h as well as the positive control tube. No organism suspension was added into the negative control tube i.
The above tubes were cultured in a biochemical incubator at 37° C. for 24 hours. Then the growth of Candida in each tube was observed and recorded.
Remark: “+” means the growth of organisms; “−” means no growth of organisms.

Lactobacillus jensenii = test: Gram-stained smear of co-culture gel, Gram-positive rods (G+b); details: for Smear G^+b: cultivated 32 hours
Text: (§17) 2.1 Experimental strains: one Lactococcus lactis strain and one Lactobacillus jensenii strain, both were clinical isolates.
(§18) The pH value was adjusted to 5.0.
(§19) 2.4 Experimental procedure: the test gel tubes containing different concentrations of antimicrobial agents, as shown in Tables 1 to 6 were inoculated with 100 microliters of Lactobacillus lactis suspension and 100 microliters of Lactobacillus jensenii suspension at the same time. The turbidities of both suspensions were 0.5 MCF. Then the tubes were cultivated at 37° C. and under 5 percent CO2 for 32 hours. Then the changes of the pH values of gels were tested. The gels were smeared, Gram stained, and microscopically examined for the morphology and quantity of bacteria.

[4] = tested on: Lactococcus lactis and Lactobacillus jensenii; test: pH of test gel after co-culture of Lactococcus lactis and Lactobacillus jensenii; details: cultivated 32 hours
Text: as §17, §18, §19

Lactococcus lactis = test: Gram-stained smear of co-culture gel, Gram-positive cocci (G+c); details: for Smear G^+c: cultivated 32 hours
Text: as §17, §18, §19

O=C([O-])c1ccccc1.[Na+] [a. 0.05% sodium benzoate]
growth of Staphylococcus aureus, Bacterial strain 1 ([1]; strain 1): + | growth of Staphylococcus aureus, Bacterial strain 2 ([1]; strain 2): + | growth of Staphylococcus aureus, Bacterial strain 3 ([1]; strain 3): + | growth of Escherichia coli, Bacterial strain 1 ([2]; strain 1): + | growth of Escherichia coli, Bacterial strain 2 ([2]; strain 2): + | growth of Escherichia coli, Bacterial strain 3 ([2]; strain 3): +

O=C([O-])c1ccccc1.[Na+] [d. 0.025% sodium benzoate]
growth of Candida albicans, strain 1 [3]: + | growth of Candida albicans, strain 2 [3]: + | growth of Candida albicans, strain 3 [3]: + | growth of Candida albicans, strain 4 [3]: + | growth of Candida albicans, strain 5 [3]: + | growth of Candida albicans, strain 6 [3]: + | growth of Candida albicans, strain 7 [3]: + | growth of Candida albicans, strain 8 [3]: + | growth of Candida albicans, strain 9 [3]: +

OCCc1ccccc1 [e. 0.050% 2-phenylethanol]
growth of Candida albicans, strain 1 [3]: − | growth of Candida albicans, strain 2 [3]: + | growth of Candida albicans, strain 3 [3]: + | growth of Candida albicans, strain 4 [3]: + | growth of Candida albicans, strain 5 [3]: + | growth of Candida albicans, strain 6 [3]: + | growth of Candida albicans, strain 7 [3]: − | growth of Candida albicans, strain 8 [3]: + | growth of Candida albicans, strain 9 [3]: +

CCC(=O)[O-].[Na+] [f. 0.125% sodium propionate]
growth of Candida albicans, strain 1 [3]: + | growth of Candida albicans, strain 2 [3]: + | growth of Candida albicans, strain 3 [3]: − | growth of Candida albicans, strain 4 [3]: + | growth of Candida albicans, strain 5 [3]: + | growth of Candida albicans, strain 6 [3]: + | growth of Candida albicans, strain 7 [3]: − | growth of Candida albicans, strain 8 [3]: + | growth of Candida albicans, strain 9 [3]: −

CC(=O)[O-].[Na+] [sodium acetate]
Smear G^+b (Lactobacillus jensenii; 0.1 % in test gel): G^+b+ | Smear G^+b (Lactobacillus jensenii; 0.2 % in test gel): G^+b+ | Smear G^+b (Lactobacillus jensenii; 0.3 % in test gel): G^+b+ | Smear G^+b (Lactobacillus jensenii; 0.4 % in test gel): G^+b+ | Smear G^+b (Lactobacillus jensenii; 0.5 % in test gel): G^+b+ | Smear G^+b (Lactobacillus jensenii; 0.6 % in test gel): G^+b+ | Smear G^+b (Lactobacillus jensenii; 0.7 % in test gel): G^+b+ | Smear G^+b (Lactobacillus jensenii; 0.8 % in test gel): G^+b+ | pH value ([4]; 0.1 % in test gel): <3.8 | pH value ([4]; 0.2 % in test gel): <3.8 | pH value ([4]; 0.3 % in test gel): <3.8 | pH value ([4]; 0.4 % in test gel): <3.8 | pH value ([4]; 0.5 % in test gel): <3.8 | pH value ([4]; 0.6 % in test gel): 3.8 | pH value ([4]; 0.7 % in test gel): 3.8 | pH value ([4]; 0.8 % in test gel): 3.8-4.1 | Smear G^+c (Lactococcus lactis; 0.1 % in test gel): G^+c++ | inhibition effect on the growth of Lactococcus lactis (Lactococcus lactis; 0.1 to 0.8 percent): little inhibition effect | Smear G^+c (Lactococcus lactis; 0.2 % in test gel): G^+c++ | Smear G^+c (Lactococcus lactis; 0.3 % in test gel): G^+c++ | Smear G^+c (Lactococcus lactis; 0.4 % in test gel): G^+c++ | Smear G^+c (Lactococcus lactis; 0.5 % in test gel): G^+c++ | Smear G^+c (Lactococcus lactis; 0.6 % in test gel): G^+c++ | Smear G^+c (Lactococcus lactis; 0.7 % in test gel): G^+c++ | Smear G^+c (Lactococcus lactis; 0.8 % in test gel): G^+c++

CC(=O)c1c([O-])cc(C)oc1=O.[Na+] [sodium dehydroacetate]
Smear G^+b (Lactobacillus jensenii; 0.005 % in test gel): G^+b+ | Smear G^+b (Lactobacillus jensenii; 0.010 % in test gel): G^+b+ | Smear G^+b (Lactobacillus jensenii; 0.015 % in test gel): G^+b+ | Smear G^+b (Lactobacillus jensenii; 0.020 % in test gel): G^+b+ | Smear G^+b (Lactobacillus jensenii; 0.025 % in test gel): G^+b+ | Smear G^+b (Lactobacillus jensenii; 0.030 % in test gel): G^+b+ | Smear G^+b (Lactobacillus jensenii; 0.035 % in test gel): G^+b+ | pH value ([4]; 0.005 % in test gel): 3.8 | pH value ([4]; 0.010 % in test gel): 3.8 | pH value ([4]; 0.015 % in test gel): 3.8 | pH value ([4]; 0.020 % in test gel): 3.8 | pH value ([4]; 0.025 % in test gel): 3.8 | pH value ([4]; 0.030 % in test gel): 3.8 | pH value ([4]; 0.035 % in test gel): 3.8 | Smear G^+c (Lactococcus lactis; 0.005 % in test gel): G^+c++ | inhibition effect on the growth of Lactococcus lactis (Lactococcus lactis; 0.005 to 0.035 percent): little inhibition effect | Smear G^+c (Lactococcus lactis; 0.010 % in test gel): G^+c++ | Smear G^+c (Lactococcus lactis; 0.015 % in test gel): G^+c++ | Smear G^+c (Lactococcus lactis; 0.020 % in test gel): G^+c++ | Smear G^+c (Lactococcus lactis; 0.025 % in test gel): G^+c++ | Smear G^+c (Lactococcus lactis; 0.030 % in test gel): G^+c++ | Smear G^+c (Lactococcus lactis; 0.035 % in test gel): G^+c++

CCCCCCCC(=O)[O-].[Na+] [sodium octanoate]
Smear G^+b (Lactobacillus jensenii; 0.010 % in test gel): G^+b+ | Smear G^+b (Lactobacillus jensenii; 0.015 % in test gel): G^+b+ | Smear G^+b (Lactobacillus jensenii; 0.020 % in test gel): G^+b+ | inhibiting effect on lactobacillus (Lactobacillus jensenii; 0.05 percent): stronger inhibiting effect | pH value ([4]; 0.010 % in test gel): <3.8 | pH value ([4]; 0.015 % in test gel): <3.8 | pH value ([4]; 0.020 % in test gel): 3.8 | pH value ([4]; 0.05 % in test gel): 4.8 | Smear G^+c (Lactococcus lactis; 0.010 % in test gel): G^+c++++ | inhibition effect on the growth of Lactococcus lactis (Lactococcus lactis; 0.010 to 0.020 percent): little inhibition effect | Smear G^+c (Lactococcus lactis; 0.015 % in test gel): G^+c++++ | Smear G^+c (Lactococcus lactis; 0.020 % in test gel): G^+c++++ | inhibiting effect on Lactococcus lactis (Lactococcus lactis; 0.05 percent): stronger inhibiting effect
